Results published in patent US11548855B2, “Pyrazole amide compound and application thereof, and fungicide” (Shandong United Pesticide Industry Co. Ltd., priority 2017, dated 2023).

Experiments:
cucumber powdery mildew [1] = assay: Field trial, cucumber powdery mildew; format: in vivo; conditions: sprayed twice
Protocol: I. Cucumber Powdery Mildew Test Method:
Spray method: Stein and leaf spray (Applicator: Xinkangda lithium battery electric sprayer).
Test crop: cucumber (cultivars: Tianjiao7)
(§1) The test was carried out in Shenyang, the test field was loam with rich organic matters and normal management of fertilizer and water, and no other pesticide was applied during the test.
The arrangement of the test plot was random block permutation; the area of the test plot: 15 m^2; repeat times: 3 times; spray time and frequency: period between Sep. 28, 2018 and Oct. 11, 2018, twice. Spray dosage: each treatment was repeated 3 times, the total water consumption was 8 L. No other pesticide was applied during the test. […] 15-20 days after the second treatment, the incidence of disease spots in each plot was investigated.
The incidence of disease spots in each plot was investigated by randomly selecting 4 samples/plot and 2 plants/samples, all leaves/plant, the incidence of the whole plant was recorded by counting the number of disease leaves and determining the incidence grade.
Grading standard (in units of leaves):
(§2) Grade 0: no leaf-spot area;
(§3) Grade 1: the ratio of leaf-spot area to leaf area is less than 5%;
Grade 3: the ratio of leaf-spot area to leaf area is between 6-10%;
Grade 5: the ratio of leaf-spot area to leaf area is between 11-20%;
Grade 7: the ratio of leaf-spot area to leaf area is between 21-40%;
Grade 9: the ratio of leaf-spot area to leaf area is more than 40%;
(§4) According to the relevant content of the “Guidelines for the field efficacy trials of pesticides of the People's Republic of China (PRC)”, the disease index was calculated according to the grading standard, and the control effect in a unit of % was calculated based on the disease index, and the test data of significance analysis was performed by using DPS evaluation system (DMRT).

[2] = test system: soybean rust (Phakopsora pacchyrhizi Sydow); assay: Greenhouse pot test, soybean rust; format: in vivo; conditions: Glycine max, 168 h, read-out: Control effect (%) Soybean rust
Protocol: (§5) Test method: each of the test compounds in Table 1 was dispensed to 5 wt % emulsifiable concentrate (hereinafter referred to as 5% EC). The greenhouse pot test was used in each experiment, and the effective concentrations of each compound were illustrated in Table 1.
Soybean rust: two-leaf stage potted soybean seedling with uniform growth was selected and made foliar spray treatment with 5% EC, the blank control sprayed with clean water was additionally arranged, three replicates were carried out. After 24 h, the leaves of the host plants were inoculated with sporangial suspensions of the fungi soybean rust (Phakopsora pacchyrhizi Sydow), the plants were stored in humidity chamber (temperature 20-25° C., relative humidity>95%) and then transferred to greenhouse (25±1° C.) 8-16 h after infection. After 7 days, the screening results were investigated according to the disease incidence condition of blank control.
(§6) The investigation method: “Guidelines for the field efficacy trials of pesticides” was adopted as the grading standard, and the control effect in a unit of % was calculated based on the disease index. Disease index=Σ(number of diseased leaves at each grade×relative grade value)×100/(total number of leaves×9); Control effect (%)=(disease index of control−disease index of treated)×100/disease index of control;
(§7) The compounds provided by the present disclosure and some control compounds were tested by the same methods in the Test example 1, except that the effective concentrations of the compounds in this Test example are shown in Table 2.

cucumber powdery mildew [3] = assay: Greenhouse pot test, cucumber powdery mildew; format: in vivo; conditions: Cucumis sativus, 192 h, greenhouse pot, read-out: Control effect (%) Cucumber powdery mildew
Protocol: as §5
Cucumber powdery mildew: cucumber seedling in a true leaf period with uniform growth was selected, and dried in the shade for 24 h after spray treatment. Fresh cucumber powdery mildew spores on the cucumber leaves were collected and washed, and filtered through a double gauze to prepare a spores suspension with concentration of about 100,000/mL, then spray inoculation was applied. The test materials inoculated were moved into a greenhouse (lighting 21-23° C.), after 8 days, the grading investigation was carried out according to the disease incidence condition of blank control, and the control effect in a unit of % was calculated according to disease index.
as §6, §7

wheat powdery mildew = assay: Field trial, wheat powdery mildew; format: in vivo, Erysiphe graminis; conditions: sprayed once
Protocol: II. The Wheat Powdery Mildew Test Method:
Spray method: Stein and leaf spraying (Applicator: Xinkangda lithium battery electric sprayer).
Test crops: wheat (cultivars: Liaochun 10)
as §1
The arrangement of the test plot was random block permutation; the area of the test plot: 15 m^2; repeat times: 3 times; spray time and frequency: Sep. 17, 2018, once. Spray dosage: each treatment was repeated 3 times, the total water consumption was 8 L. No other pesticide was applied during the test.
The incidence of disease spots in each plot was investigated by diagonal selecting 4 samples/plot and 20 plants/samples, and the first leaf below the flag leaf of each plant was investigated.
The grading standard of crop disease was as follows:
as §2, §3
Grade 3: the ratio of leaf-spot area to leaf area is between 6-25%;
Grade 5: the ratio of leaf-spot area to leaf area is between 26-50%;
Grade 7: the ratio of leaf-spot area to leaf area is between 51-75%;
Grade 9: the ratio of leaf-spot area to leaf area is between 76-100%;
as §4

[4] = test system: corn rust (Puccinia sorghi); assay: Greenhouse pot test, corn rust; format: in vivo; conditions: Puccinia sorghi, 168 h, read-out: Control effect (%) Corn rust
Protocol: as §5
Corn rust: two-three leaf stage potted corn seedling with uniform growth was selected and made foliar spray treatment with 5% EC, the blank control sprayed with clean water was additionally arranged, three replicates were carried out. After 24 h, the leaves of the host plants were inoculated with sporangial suspensions of the fungi corn rust (Puccinia sorghi), the plants were stored in humidity chamber (temperature: lighting 25° C., dark 20° C., relative humidity 95-100%) and then transferred to greenhouse (25±1° C.) 24 h after infection. After 7 days, the screening results were investigated according to the disease incidence condition of blank control.
as §6, §7

Cn1cc(C(=O)Nc2ccccc2Oc2ccc(C(F)(F)F)cc2C(F)(F)F)c(C(F)F)n1 [Compound 1]
Control effect (%) Cucumber powdery mildew (cucumber powdery mildew [1]; 100 mg/L): 90.0% | Control effect (%) Cucumber powdery mildew (cucumber powdery mildew [1]; 200 mg/L): 96.5% | pest or weed control at 0.5 µg/mL ([2]; 0.5 mg/L): 100% | pest or weed control at 1 µg/mL ([2]; 1 mg/L): 100% | pest or weed control at 1.5625 µg/mL ([2]; 1.5625 mg/L): 100% | pest or weed control at 2.5 µg/mL ([2]; 2.5 mg/L): 100% | pest or weed control at 3.125 µg/mL ([2]; 3.1250 mg/L): 100% | pest or weed control at 6.25 µg/mL ([2]; 6.25 mg/L): 100% | pest or weed control at 10 µg/mL ([2]; 10 mg/L): 100% | pest or weed control at 25 µg/mL ([2]; 25 mg/L): 100% | pest or weed control at 100 µg/mL ([2]; 100 mg/L): 100% | pest or weed control at 1 µg/mL (cucumber powdery mildew [3]; 1 mg/L): 90% | pest or weed control at 1.5625 µg/mL (cucumber powdery mildew [3]; 1.5625 mg/L): 95% | pest or weed control at 2.5 µg/mL (cucumber powdery mildew [3]; 2.5 mg/L): 98% | pest or weed control at 3.125 µg/mL (cucumber powdery mildew [3]; 3.1250 mg/L): 100% | pest or weed control at 6.25 µg/mL (cucumber powdery mildew [3]; 6.25 mg/L): 100% | pest or weed control at 10 µg/mL (cucumber powdery mildew [3]; 10 mg/L): 100% | pest or weed control at 25 µg/mL (cucumber powdery mildew [3]; 25 mg/L): 100% | pest or weed control at 100 µg/mL (cucumber powdery mildew [3]; 100 mg/L): 100% | Control effect (%) Wheat powdery mildew (wheat powdery mildew; 100 mg/L): 98% | Control effect (%) Wheat powdery mildew (wheat powdery mildew; 200 mg/L): 100% | pest or weed control at 1.5625 µg/mL ([4]; 1.5625 mg/L): 100% | pest or weed control at 2.5 µg/mL ([4]; 2.5 mg/L): 100% | pest or weed control at 3.125 µg/mL ([4]; 3.1250 mg/L): 100% | pest or weed control at 6.25 µg/mL ([4]; 6.25 mg/L): 100% | pest or weed control at 10 µg/mL ([4]; 10 mg/L): 100% | pest or weed control at 25 µg/mL ([4]; 25 mg/L): 100% | pest or weed control at 100 µg/mL ([4]; 100 mg/L): 100%
